Measurements as given in US12077503B2, “Substituted cyclic amides and their use as herbicides” (FMC CORPORATION, priority 2015, dated 2024).

Tests used:
Format in all cases: in vivo
Kochia (Kochia scoparia) [1] = assay: Test A preemergence; details: Bassia scoparia, pre-emergence, 240 h, 0 to 100 scale where 0 is no effect and 100 is complete control, read-out: Kochia plant response rating
Outline: (§1)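 Seeded soil received test chemicals as a preemergence directed spray, and seedlings at one to two leaves, 2–10 cm tall, received them postemergence, in a non-phytotoxic, surfactant-containing solvent mixture. Pots were held in a greenhouse for approximately 10 d, then rated for injury from 0, no effect, to 100, complete control.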

[2] = tested on: pigweed (Amaranthus retroflexus); assay: Test A preemergence; details: Amaranthus retroflexus, pre-emergence, 240 h, 0 to 100 scale where 0 is no effect and 100 is complete control, read-out: Pigweed plant response rating
[3] = tested on: barnyardgrass (Echinochloa crus-galli); assay: Test A preemergence; details: Echinochloa crus-galli, pre-emergence, 240 h, 0 to 100 scale where 0 is no effect and 100 is complete control, read-out: Barnyardgrass plant response rating
Outline: as §1

[4] = tested on: ragweed (common ragweed, Ambrosia elatior); assay: Test A preemergence; details: Ambrosia artemisiifolia, pre-emergence, 240 h, 0 to 100 scale where 0 is no effect and 100 is complete control, read-out: Ragweed plant response rating
Outline: as §1

[5] = tested on: giant foxtail (Setaria faberii); assay: Test A preemergence; details: Setaria faberi, pre-emergence, 240 h, 0 to 100 scale where 0 is no effect and 100 is complete control, read-out: Foxtail, Giant plant response rating
Outline: as §1

[6] = tested on: ryegrass, Italian (Italian ryegrass, Lolium multiflorum); assay: Test A preemergence; details: Lolium multiflorum, pre-emergence, 240 h, 0 to 100 scale where 0 is no effect and 100 is complete control, read-out: Ryegrass, Italian plant response rating
Outline: as §1

corn (Zea mays) = assay: Test A postemergence; details: Zea mays, post-emergence, 240 h, Postemergence, read-out: Corn plant response rating (0 to 100 scale)
Outline: as §1

[7] = tested on: wheat (Triticum aestivum); assay: Test A postemergence; details: Triticum aestivum, post-emergence, 240 h, Postemergence, read-out: Wheat plant response rating (0 to 100 scale)
Outline: as §1

Kochia (Kochia scoparia) [8] = assay: Test A postemergence; details: Bassia scoparia, post-emergence, 240 h, Postemergence, read-out: Kochia plant response rating (0 to 100 scale)
Outline: as §1

[9] = tested on: blackgrass (Alopecurus myosuroides); assay: Test A postemergence; details: Alopecurus myosuroides, post-emergence, 240 h, Postemergence, read-out: Blackgrass plant response rating (0 to 100 scale)
Outline: as §1

[10] = tested on: pigweed (Amaranthus retroflexus); assay: Test A postemergence; details: Amaranthus retroflexus, post-emergence, 240 h, Postemergence, read-out: Pigweed plant response rating (0 to 100 scale)
Outline: as §1

[11] = tested on: Galium (catchweed bedstraw, Galium aparine); assay: Test A postemergence; details: Galium, post-emergence, 240 h, Postemergence, read-out: Galium plant response rating (0 to 100 scale)
Outline: as §1

[12] = tested on: barnyardgrass (Echinochloa crus-galli); assay: Test A postemergence; details: Echinochloa crus-galli, post-emergence, 240 h, Postemergence
Outline: as §1

[13] = tested on: ragweed (common ragweed, Ambrosia elatior); assay: Test A postemergence; details: Ambrosia artemisiifolia, post-emergence, 240 h, Postemergence, read-out: Ragweed plant response rating (0 to 100 scale)
Outline: as §1

[14] = tested on: giant foxtail (Setaria faberii); assay: Test A postemergence; details: Setaria faberi, post-emergence, 240 h, Postemergence, read-out: Foxtail, Giant plant response rating (0 to 100 scale)
Outline: as §1

[15] = tested on: ryegrass, Italian (Italian ryegrass, Lolium multiflorum); assay: Test A postemergence; details: Lolium multiflorum, post-emergence, 240 h, Postemergence, read-out: Ryegrass, Italian plant response rating (0 to 100 scale)
Outline: as §1

[16] = tested on: ducksalad (Heteranthera limosa); assay: Test B flooded paddy test; details: Heteranthera limosa, 250 g ai/ha, Flood; 0 to 100 scale where 0 is no effect and 100 is complete control; read-out: Ducksalad plant response rating
Outline: (§2)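 Evaluation by eye, against controls, occurred 13–15 d post-treatment in a greenhouse, using a 0 (no effect) to 100 (complete control) scale. Application was into the paddy water, 3 cm deep over the soil, on 2-leaf plants.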

[17] = tested on: sedge, umbrella (small-flower umbrella sedge, Cyperus difformis); assay: Test B flooded paddy test; details: Cyperus difformis, 250 g ai/ha, Flood; 0 to 100 scale where 0 is no effect and 100 is complete control; read-out: Sedge, Umbrella plant response rating
Outline: as §2

[18] = tested on: barnyardgrass (Echinochloa crus-galli); assay: Test B flooded paddy test; details: Echinochloa crus-galli, 250 g ai/ha, Flood; 0 to 100 scale where 0 is no effect and 100 is complete control; read-out: Barnyardgrass plant response rating
Outline: as §2

rice (Oryra sativa) = assay: Test B flooded paddy test; details: Oryza sativa, 250 g ai/ha, Flood; 0 to 100 scale where 0 is no effect and 100 is complete control; read-out: Rice plant response rating
Outline: as §2

[19] = 125 g ai/ha, preemergence, visual injury rating, approximately 10 d
[20] = 125 g ai/ha, visual rating about 10 d after treatment
[21] = 31 g ai/ha, 0 is no effect, 100 is complete control

SMILES: CN1C[C@H](c2cccc(C#N)c2)[C@@H](C(=O)Nc2cccc(F)c2F)C1=O [Compound 1286]
- pest or weed control at 31 g/ha (Kochia (Kochia scoparia) [1]; 31 g ai/ha, Preemergence): 0%
- pest or weed control at 125 g/ha (Kochia (Kochia scoparia) [1]; [19]): 60%
- pest or weed control at 31 g/ha ([2]; 31 g ai/ha, Preemergence): 0%
- pest or weed control at 125 g/ha [2, 19]: 20%
- pest or weed control at 31 g/ha ([3]; 31 g ai/ha, Preemergence): 100%
- pest or weed control at 125 g/ha [3, 19]: 100%
- pest or weed control at 31 g/ha ([4]; 31 g ai/ha, Preemergence): 0%
- pest or weed control at 125 g/ha [4, 19]: 50%
- pest or weed control at 31 g/ha ([5]; 31 g ai/ha, Preemergence): 100%
- pest or weed control at 125 g/ha [5, 19]: 100%
- pest or weed control at 31 g/ha ([6]; 31 g ai/ha, Preemergence): 20%
- pest or weed control at 125 g/ha [6, 19]: 60%
- plant injury at 125 g/ha (corn (Zea mays); [20]): 80%
- plant injury at 31 g/ha (corn (Zea mays); [21]): 20%
- plant injury at 125 g/ha [7, 20]: 0%
- plant injury at 31 g/ha [7, 21]: 0%
- pest or weed control at 125 g/ha (Kochia (Kochia scoparia) [8]; [20]): 30%
- pest or weed control at 31 g/ha (Kochia (Kochia scoparia) [8]; [21]): 0%
- pest or weed control at 125 g/ha [9, 20]: 40%
- pest or weed control at 31 g/ha [9, 21]: 0%
- pest or weed control at 125 g/ha [10, 20]: 20%
- pest or weed control at 31 g/ha [10, 21]: 0%
- pest or weed control at 125 g/ha [11, 20]: 40%
- pest or weed control at 31 g/ha [11, 21]: 20%
- pest or weed control at 125 g/ha ([12]; 125 g ai/ha, visual rating about 10 d after treatment, read-out: Barnyardgrass plant response rating (0 to 100 scale, 0 no effect, 100 complete control)): 90%
- pest or weed control at 31 g/ha ([12]; 31 g ai/ha, 0 is no effect, 100 is complete control, read-out: Barnyardgrass plant response rating (0 to 100 scale)): 90%
- pest or weed control at 125 g/ha [13, 20]: 0%
- pest or weed control at 31 g/ha [13, 21]: 0%
- pest or weed control at 125 g/ha [14, 20]: 90%
- pest or weed control at 31 g/ha [14, 21]: 70%
- pest or weed control at 125 g/ha [15, 20]: 0%
- pest or weed control at 31 g/ha [15, 21]: 0%
- pest or weed control at 250 g/ha [16]: 95%
- pest or weed control at 250 g/ha [17]: 0%
- pest or weed control at 250 g/ha [18]: 70%
- pest or weed control at 250 g/ha (rice (Oryra sativa)): 0%
